Measured values reported in ChEMBL document CHEMBL4765320, “Identification and optimization of piperine analogues as neuroprotective agents for the treatment of Parkinson's disease via the activation of Nrf2/keap1 pathway” (Eur J Med Chem, 2020).

System: PC-12
Assay: Neuroprotective activity against H2O2-induced cytotoxicity in rat PC-12 cells assessed as cell viability at 12.5 uM pretreated for 24 hrs followed by H2O2 challenge and measured after 24 hrs by MTT assay (reference value: 52.81 +/- 6%)
Type: functional
Details: time 48 hrs, read-out: Activity

**Q.** How did the viability at 12.5 µM turn out when `O=C(/C=C/C=C/c1ccc(N2CCCC2)cc1)N1CCCCC1` was run?
**A.** Its viability at 12.5 µM is 37.2%.

**Q.** How did the viability at 12.5 µM turn out when `O=C(/C=C/c1ccc(N2CCCC2)cc1)N1CCCCC1` was run?
**A.** The viability at 12.5 µM was 30.6%.

**Q.** Which viability at 12.5 µM does the source give for `CCN(CC)C(=O)/C=C/C=C/c1ccc2c(c1)OCO2` here?
**A.** Its viability at 12.5 µM is 31.4%.

**Q.** How did the viability at 12.5 µM turn out when `CCNC(=O)/C=C/c1ccc2c(c1)OCO2` was run?
**A.** Its viability at 12.5 µM is 69.7%.

**Q.** `O=C(/C=C/c1cccs1)N1CCCCC1` was tested. Which viability at 12.5 µM did it give?
**A.** Its viability at 12.5 µM is 50.4%.

**Q.** `O=C(/C=C/C=C/c1cccc(O)c1)N1CCCCC1` was tested. Which viability at 12.5 µM did it give?
**A.** Its viability at 12.5 µM is 75.7%.

**Q.** How did the viability at 12.5 µM turn out when `O=C(/C=C/c1ccc2c(c1)OCO2)N1CCCCC1` [ILEPCIMIDE] was run?
**A.** Its viability at 12.5 µM is 77%.

**Q.** How did the viability at 12.5 µM turn out when `CCN(CC)C(=O)/C=C/C=C/c1ccc(O)cc1` was run?
**A.** The viability at 12.5 µM was 67.3%.

**Q.** How did the viability at 12.5 µM turn out when `O=C(/C=C/C=C/c1ccc(N2CCCCC2)cc1)N1CCCCC1` was run?
**A.** The viability at 12.5 µM was 18.9%.

**Q.** How did the viability at 12.5 µM turn out when `O=C(/C=C/C=C/c1ccccc1O)N1CCCCC1` was run?
**A.** Its viability at 12.5 µM is 68.8%.

**Q.** How did the viability at 12.5 µM turn out when `CCN(CC)C(=O)/C=C/c1ccc2c(c1)OCO2` was run?
**A.** The viability at 12.5 µM was 71.7%.

**Q.** Which viability at 12.5 µM does the source give for `O=C(/C=C/C=C/c1ccc2c(c1)OCO2)N1CCCCC1` [PIPERINE] here?
**A.** The viability at 12.5 µM was 55.7%.

**Q.** How did the viability at 12.5 µM turn out when `CCNC(=O)/C=C/C=C/c1ccccc1OC` was run?
**A.** The viability at 12.5 µM was 74.6%.

**Q.** How did the viability at 12.5 µM turn out when `CCNC(=O)/C=C/c1cccs1` was run?
**A.** The viability at 12.5 µM was 56.5%.

**Q.** Which viability at 12.5 µM does the source give for `COc1ccccc1/C=C/C(=O)N1CCCCC1` here?
**A.** The viability at 12.5 µM was 81.3%.

**Q.** `CCN(CC)C(=O)/C=C/c1ccccc1OC` was tested. Which viability at 12.5 µM did it give?
**A.** The viability at 12.5 µM was 78.2%.

**Q.** With `O=C(/C=C/C=C/c1ccc(-c2ccccc2)cc1)N1CCCCC1` as the molecule, how does the viability at 12.5 µM read?
**A.** The viability at 12.5 µM was 15.2%.

**Q.** `CCN(CC)C(=O)/C=C/C=C/c1ccccc1OC` was tested. Which viability at 12.5 µM did it give?
**A.** Its viability at 12.5 µM is 80.7%.

**Q.** Which viability at 12.5 µM does the source give for `O=C(/C=C/C=C/c1ccc(N2CCOCC2)cc1)N1CCCCC1` here?
**A.** The viability at 12.5 µM was 20.2%.

**Q.** `CCNC(=O)/C=C/c1ccccc1OC` was tested. Which viability at 12.5 µM did it give?
**A.** The viability at 12.5 µM was 68.5%.

**Q.** `CCN(CC)C(=O)/C=C/C=C/c1cccn1C` was tested. Which viability at 12.5 µM did it give?
**A.** Its viability at 12.5 µM is 67.8%.

**Q.** Which viability at 12.5 µM does the source give for `O=C(/C=C/C=C/c1ccco1)N1CCCCC1` here?
**A.** The viability at 12.5 µM was 33.3%.

**Q.** For `COc1cccc(/C=C/C=C/C(=O)N2CCCCC2)c1`, which viability at 12.5 µM is on record?
**A.** Its viability at 12.5 µM is 58.1%.

**Q.** How did the viability at 12.5 µM turn out when `CCNC(=O)/C=C/c1ccc(N2CCNCC2)cc1` was run?
**A.** The viability at 12.5 µM was 42.7%.

**Q.** With `CC(C)(C)c1cc(O)ccc1O` [E319] as the molecule, how does the viability at 12.5 µM read?
**A.** Its viability at 12.5 µM is 70.4%.

**Q.** How did the viability at 12.5 µM turn out when `O=C(/C=C/C=C/c1cccs1)N1CCCCC1` was run?
**A.** The viability at 12.5 µM was 57.9%.

**Q.** Which viability at 12.5 µM does the source give for `CCN(CC)C(=O)/C=C/c1cccs1` here?
**A.** The viability at 12.5 µM was 54.3%.

**Q.** With `CCNC(=O)/C=C/C=C/c1ccc2c(c1)OCO2` as the molecule, how does the viability at 12.5 µM read?
**A.** Its viability at 12.5 µM is 22.3%.

**Q.** How did the viability at 12.5 µM turn out when `O=C(/C=C/C=C/c1ccc(O)cc1)N1CCCCC1` was run?
**A.** The viability at 12.5 µM was 48.4%.

**Q.** How did the viability at 12.5 µM turn out when `CCN(CC)C(=O)/C=C/c1ccc(N2CCCC2)cc1` was run?
**A.** Its viability at 12.5 µM is 26.1%.

**Q.** Which viability at 12.5 µM does the source give for `COc1ccc(/C=C/C=C/C(=O)N2CCCCC2)cc1` here?
**A.** Its viability at 12.5 µM is 26.5%.

**Q.** How did the viability at 12.5 µM turn out when `CCNC(=O)/C=C/C=C/c1ccc(O)cc1` was run?
**A.** The viability at 12.5 µM was 69.1%.

**Q.** Which viability at 12.5 µM does the source give for `O=C(/C=C/c1ccc(N2CCNCC2)cc1)N1CCCCC1` here?
**A.** The viability at 12.5 µM was 72.6%.

**Q.** `CCN(CC)C(=O)/C=C/c1ccc(N2CCNCC2)cc1` was tested. Which viability at 12.5 µM did it give?
**A.** Its viability at 12.5 µM is 69.1%.
